Results taken from patent US11014905B2, “2,6-disubstituted pyridine derivative” (Sumitomo Dainippon Pharma Co., Ltd., priority 2017, dated 2021).

Legend:
[1] = Test 3-2: metabolic stability test of human liver microsome; assay type: in vitro ADME; details: human liver microsome 0.5 or 1.0 mg/mL, test compound 0.1 μmol/L, 37° C., 30 minutes
Experimental: Test 3-2: Metabolic Stability Test of Human Liver Microsome
(§1) In order to evaluate the metabolic stability of human liver microsomes more precisely, the stability of the present compounds for human liver microsome metabolism was evaluated with a suitable concentration of human liver microsome, as mentioned below. The used human liver microsome was obtained from Xenontech. Human liver microsome, NADPH, and each test compound were mixed in 25 mmol/L phosphate buffer solution (pH 7.4) to adjust each concentration as shown below, and the mixture was incubated at 37° C. for 30 minutes. • human liver microsome: 0.5 or 1.0 mg/mL • NAPDH: 3.2 mmol/L • test compound: 0.1 μmol/L
(§2) The residual ratio of the test compound in each sample after the incubation for 30 minutes was measured with a LC-MS, and the metabolic stability of human liver microsome was calculated about each test compound with the following formula. Metabolic stability of human liver microsome(mL/min/mg protein)=−LN(residual ratio)/“reaction time”/“concentration of human liver microsome”

[2] = Test 3-1: metabolic stability test of human liver microsome; assay type: in vitro ADME; details: human liver microsome 0.1 mg/mL, test compound 0.1 μmol/L, 37° C., 30 minutes
Experimental: Test 3-1: Metabolic Stability Test of Human Liver Microsome
as §1, with “The” for “In order to evaluate the metabolic stability of human liver microsomes more precisely, the”, “evaluated” for “evaluated with a suitable concentration of human liver microsome,”, “0.1” for “0.5 or 1.0”
as §2

Wistar male rat = assay: Test 9: microdialysis test (intracerebral monoamine release); assay type: in vivo; details: in the combination administration with sertraline or in single administration
Experimental: Test 9: Microdialysis Test
The effect of the present compound for the release amount of intracerebral monoamine was evaluated in a manner mentioned below.
8-Week-old Wistar male rat was fixed on a brain stereotaxic apparatus under anesthesia. The scalp was incised, the subcutaneous tissue was removed, the position of the bregma was measured, and the installation position of a guide cannula was calculated (the position of the orbitofrontal cortex which defined according to the brain stereotaxic coordinates of Paxinos & Watson (2.0 mm right, 4.2 mm anterior from bregma)). The skull was drilled with a dental drill at the installation position of the guide cannula, and an anchor screw was set about 1 cm posterior to the hole. The guide cannula was set and fixed with a dental cement, and then the scalp was sutured. The animal was released from the brain stereotaxic apparatus, and was moved back to the breeding cage. In the event of the test, the rat was put in an acrylic observable cage, and a dialysis probe was inserted along the guide cannula to connect to a free-moving tube. With an infusion pump, Ringer solution was perfused at 2 μL/min, and the dialysis solution was recovered at 20-minute intervals. […] The recovered dialysis solutions were analyzed with a HPLC-ECD system to determine the contents of norepinephrine (NE), dopamine (DA), and serotonin (5-HT).

human D4 receptor [3] = target: T1, human D4 receptor (Homo sapiens (Human), UniProt P21917); assay: Test 2: binding activity to human D4 receptor ([3H] dopamine); details: CHO cell membrane fraction, read-out: D4 binding affinity (Ki value)
T1 sequence (P21917 whole entry): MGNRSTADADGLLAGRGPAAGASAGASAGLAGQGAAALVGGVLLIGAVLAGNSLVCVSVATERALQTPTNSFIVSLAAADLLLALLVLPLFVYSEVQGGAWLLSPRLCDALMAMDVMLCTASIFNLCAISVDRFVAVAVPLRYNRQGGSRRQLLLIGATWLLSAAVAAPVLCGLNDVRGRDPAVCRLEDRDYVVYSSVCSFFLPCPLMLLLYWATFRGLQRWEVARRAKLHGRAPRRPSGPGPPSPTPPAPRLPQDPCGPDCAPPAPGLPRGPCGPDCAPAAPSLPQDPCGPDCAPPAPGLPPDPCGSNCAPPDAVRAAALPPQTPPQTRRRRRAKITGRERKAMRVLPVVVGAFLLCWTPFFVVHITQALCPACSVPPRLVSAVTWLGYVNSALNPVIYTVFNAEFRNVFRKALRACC
Experimental: (§3) Test 2: Evaluation of Binding Activity to Human 5-HT1A Receptor, Human D4 Receptor, and Human D2 Receptor
(§4) CHO cell membrane fraction in which human 5-HT1A receptor, human D4 receptor, and human D2 receptor were expressed was purchased from PerkinElmer Co., Ltd. In the evaluation test of binding, the test compound dissolved in DMSO, each receptor membrane preparation diluted with buffer solution, and [3H] […] The nonspecific binding to each receptor was evaluated by a competition binding experiment in the presence of 10 μmol/L 8-OH-DPAT, 10 μmol/L dopamine, or 10 μmol/L spiperone, respectively.

human D2 receptor = human D2 receptor (Homo sapiens (Human), UniProt P14416); assay: Test 2: binding activity to human D2 receptor ([3H] spiperone); details: CHO cell membrane fraction, read-out: D2 binding affinity (Ki value)
human D2 receptor, sequence (P14416 whole entry): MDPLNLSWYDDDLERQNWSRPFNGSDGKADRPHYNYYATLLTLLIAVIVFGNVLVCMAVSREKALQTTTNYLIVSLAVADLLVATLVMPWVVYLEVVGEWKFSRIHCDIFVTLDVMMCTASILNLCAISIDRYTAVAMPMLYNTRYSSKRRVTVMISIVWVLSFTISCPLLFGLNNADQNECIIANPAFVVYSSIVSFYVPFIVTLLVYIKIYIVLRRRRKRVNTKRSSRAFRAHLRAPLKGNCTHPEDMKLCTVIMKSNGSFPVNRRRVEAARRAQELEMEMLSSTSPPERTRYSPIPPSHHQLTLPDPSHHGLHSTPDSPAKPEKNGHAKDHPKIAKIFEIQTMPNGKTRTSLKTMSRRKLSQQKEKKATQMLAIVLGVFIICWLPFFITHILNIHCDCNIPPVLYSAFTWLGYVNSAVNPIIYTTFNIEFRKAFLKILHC
Experimental: as §3, §4

human 5-HT1A receptor [4] = target: T2, human 5-HT1A receptor (Homo sapiens (Human), UniProt P08908); assay: Test 2: binding activity to human 5-HT1A receptor ([3H] 8-OH-DPAT); details: CHO cell membrane fraction, read-out: 5-HT1A binding affinity (Ki value)
T2 sequence (P08908 whole entry): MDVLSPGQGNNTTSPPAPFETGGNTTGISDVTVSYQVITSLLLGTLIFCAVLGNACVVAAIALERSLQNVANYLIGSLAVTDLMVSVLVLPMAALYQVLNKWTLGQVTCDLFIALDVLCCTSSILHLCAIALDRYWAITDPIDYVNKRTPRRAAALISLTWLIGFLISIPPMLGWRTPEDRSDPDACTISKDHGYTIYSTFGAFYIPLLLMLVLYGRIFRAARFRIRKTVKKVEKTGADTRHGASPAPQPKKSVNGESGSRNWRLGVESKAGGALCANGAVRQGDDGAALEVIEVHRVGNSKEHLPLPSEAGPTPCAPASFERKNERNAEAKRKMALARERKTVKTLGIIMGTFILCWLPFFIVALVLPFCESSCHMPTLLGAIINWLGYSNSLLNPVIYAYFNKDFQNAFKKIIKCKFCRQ
Experimental: as §3, §4

human 5-HT1A receptor [5] = target: T2, human 5-HT1A receptor; assay: Test 1: agonistic activity for human 5-HT1A receptor (aequorin luminescence, CHO-K1); assay type: cell-based; details: for EC50: CHO-K1 cell transiently expressing aequorin, Ga16 and receptor
Experimental: (§5) Test 1: Evaluation of Agonistic Activity for Human 5-HT1A Receptor and Human D4 Receptor
(§6) Aequorin, Ga16 proteins, and each receptor were transiently expressed in CHO-K1 cell (Chinese hamster ovary), and seeded to 384-well plate. The plate was incubated in a CO2 incubator at 37° C. for 24 hours. Each example compound dissolved in DMSO was added thereto, and the change of luminescence amount was measured with Hamamatsu FDSS/μCELL System (Hamamatsu Photonics).

human D4 receptor [6] = target: T1, human D4 receptor; assay: Test 1: agonistic activity for human D4 receptor (aequorin luminescence, CHO-K1); assay type: cell-based; details: for EC50: CHO-K1 cell transiently expressing aequorin, Ga16 and receptor
Experimental: as §5, §6

hERG channel = hERG channel (Homo sapiens (Human), UniProt Q12809); assay: Test 5-2: activity for inhibiting hERG channel (whole-cell patch clamp, Qube); assay type: cell-based; details: hERG-CHO cell, auto patch clamp, read-out: hERG inhibition IC50
hERG channel, sequence (Q12809 whole entry): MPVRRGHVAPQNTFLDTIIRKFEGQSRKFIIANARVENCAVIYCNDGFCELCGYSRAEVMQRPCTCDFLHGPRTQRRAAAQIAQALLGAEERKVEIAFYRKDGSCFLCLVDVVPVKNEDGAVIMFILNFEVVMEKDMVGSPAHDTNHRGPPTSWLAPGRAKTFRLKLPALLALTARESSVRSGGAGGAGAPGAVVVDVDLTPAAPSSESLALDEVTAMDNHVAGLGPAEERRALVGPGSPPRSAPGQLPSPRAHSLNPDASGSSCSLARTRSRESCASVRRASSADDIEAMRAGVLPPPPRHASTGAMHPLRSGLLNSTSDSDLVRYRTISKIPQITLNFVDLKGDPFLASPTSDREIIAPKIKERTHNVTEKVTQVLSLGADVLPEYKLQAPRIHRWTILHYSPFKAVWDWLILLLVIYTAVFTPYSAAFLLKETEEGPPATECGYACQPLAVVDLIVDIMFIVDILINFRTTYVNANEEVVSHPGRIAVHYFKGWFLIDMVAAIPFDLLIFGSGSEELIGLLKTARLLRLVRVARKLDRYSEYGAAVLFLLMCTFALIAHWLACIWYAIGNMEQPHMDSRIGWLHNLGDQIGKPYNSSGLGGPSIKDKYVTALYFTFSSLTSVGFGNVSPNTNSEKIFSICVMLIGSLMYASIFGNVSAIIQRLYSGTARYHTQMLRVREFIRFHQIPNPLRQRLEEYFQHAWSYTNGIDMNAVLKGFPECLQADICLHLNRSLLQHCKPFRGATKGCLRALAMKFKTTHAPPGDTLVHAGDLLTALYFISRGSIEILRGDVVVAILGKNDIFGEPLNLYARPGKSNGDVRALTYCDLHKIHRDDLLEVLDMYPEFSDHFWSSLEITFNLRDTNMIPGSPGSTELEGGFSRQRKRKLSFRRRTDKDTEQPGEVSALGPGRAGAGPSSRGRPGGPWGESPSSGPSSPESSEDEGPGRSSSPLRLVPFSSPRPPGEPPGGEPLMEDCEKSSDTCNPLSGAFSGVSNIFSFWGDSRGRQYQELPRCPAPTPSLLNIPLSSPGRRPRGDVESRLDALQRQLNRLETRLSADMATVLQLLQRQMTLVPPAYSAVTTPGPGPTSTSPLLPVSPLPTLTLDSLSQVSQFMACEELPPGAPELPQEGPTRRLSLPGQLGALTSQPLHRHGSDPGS
Experimental: Test 5-2: Evaluation of Activity for Inhibiting hERG Channel
The activity of the present compound for inhibiting hERG channel was measured by whole-cell patch clamp method with auto patch clamp system, using CHO cell wherein hERG channel involved in human rapidly activating delayed rectifier potassium current (IKr) was forcibly expressed.
hERG-CHO cell purchased from ChanTest was incubated at 37° C. in a CO2 incubator, and the cell was exfoliated from the flask with trypsin to prepare a cell suspension, shortly before the hERG current measurement.
Extracellular fluid: 2 mmol/L CaCl2, 1 mmol/L MgCl2, 10 mmol/L HEPES, 4 mmol/L KCl, 145 mmol/L NaCl, 10 mmol/L glucose
Intracellular fluid: 10 mmol/L HEPES, 10 mmol/L EGTA, 20 mmol/L KCl, 130 mmol/L KF […]
The cell suspension, the extracellular fluid, the intracellular fluid, and the measurement plate were set in an auto patch clamp system, and the hERG current was measured by whole-cell patch clamp method. […] The test was carried out applying increscently 4 concentrations of each test compound, and the average of the peak tail currents that were obtained by the last 3 stimulations in each applied concentration was made to be the evaluated data. By using the current inhibition rate for the pre-applied current at each concentration of each test compound, IC50 value was calculated by Hill equation with the software.

[7] = CHO-K1, 100% = 10 μmol/L endogenous ligand
[8] = 100% = 10 μmol/L endogenous ligand

Row | Metabolic stability of human liver microsome [2] | Structure (SMILES) | further results
1 | 0.073 mL/min/mg protein | O=C(NCCN1CCC(c2cccc(C(F)(F)F)n2)CC1)C1CCC(F)(F)CC1 [Example 1, 4,4-Difluoro-N-(2-{4-[6-(trifluoromethyl)pyridin-2-yl]piperidin-1-yl}ethyl)cyclohexane-carboxamide] | Metabolic stability of human liver microsome [1]: 0.031 mL/min/mg protein
2 | <0.01 mL/min/mg protein | Cc1cccc(C2CCN(CCNC(=O)C3CC4CCC3O4)CC2)n1 (stereo not shown) [Example 3] | 
3 | <0.01 mL/min/mg protein | Cc1cccc(C2CCN(CCNC(=O)C3CCC(F)(F)CC3)CC2)n1 [Example 4] | 
4 | 0.017 mL/min/mg protein | Cc1cccc(C2CCN(CCNC(=O)C3CCOCC3)CC2)n1 [Example 8, N-{2-[4-(6-Methylpyridin-2-yl)piperidin-1-yl]ethyl}-tetrahydro-2H-pyran-4-carboxamide] | Metabolic stability of human liver microsome [1]: 0.023 mL/min/mg protein
5 | 0.025 mL/min/mg protein | CC(C)(C)C(=O)NCCN1CCC(c2cccc(C(F)(F)F)n2)CC1 [Example 9, 2,2-dimethyl-N-(2-{4-[6-(trifluoromethyl)pyridin-2-yl]piperidin-1-yl}ethyl)propanamide] | Metabolic stability of human liver microsome [1]: 0.016 mL/min/mg protein
6 | 0.015 mL/min/mg protein | Cc1cccc(C2CCN(CCNC(=O)C(C)(C)C)CC2)n1 [Example 10] | 
7 | <0.05 mL/min/mg protein | Cc1cccc(C2CCN(CCNC(=O)C3CCCOC3)CC2)n1 (stereo not shown) [Example 15] | 
8 | <0.05 mL/min/mg protein | O=C(NCCN1CCC(c2cccc(C(F)(F)F)n2)CC1)[C@H]1C[C@@H]2CC[C@H]1O2 [Example 21] | 
9 | <0.05 mL/min/mg protein | O=C(NCCN1CCC(c2cccc(C(F)(F)F)n2)CC1)C1CCOC1 (stereo not shown) [Example 25] | Ki (human D2 receptor): 3.33 µM; Ki (human 5-HT1A receptor [4]): 20 nM; 5-HT1A agonistic activity Emax (human 5-HT1A receptor [5]; [8]): 46%; EC50 (human 5-HT1A receptor [5]): 67 nM; D4 agonistic activity Emax (human D4 receptor [6]; [8]): 49%; EC50 (human D4 receptor [6]): 30 nM; IC50 (hERG channel): > 10 µM
10 | <0.05 mL/min/mg protein | O=C(NCCN1CCC(c2cccc(OC(F)(F)F)n2)CC1)C1CCOCC1 [Example 28] | 
11 | <0.05 mL/min/mg protein | COc1cccc(C2CCN(CCNC(=O)C3CCOCC3)CC2)n1 [Example 33] | 
12 | <0.05 mL/min/mg protein | O=C(NCCN1CCC(c2cccc(C(F)F)n2)CC1)C1CCOCC1 [Example 34] | 
13 | <0.05 mL/min/mg protein | CN(C)c1cccc(C2CCN(CCNC(=O)C3CCOCC3)CC2)n1 [Example 38, N-(2-{4-[6-(Dimethylamino)pyridin-2-yl]piperidin-1-yl}ethyl)-tetrahydro-2H-pyran-4-carboxamide] | 

Further lines, the molecule ahead of its results:

Row | Structure (SMILES) | Metabolic stability of human liver microsome [2] | further results
14 | O=C(NCCN1CCC(c2cccc(C(F)(F)F)n2)CC1)C1CCCOC1 (stereo not shown) [Example 2] | 0.069 mL/min/mg protein | 
15 | COCC(C)(C)C(=O)NCCN1CCC(c2cccc(C)n2)CC1 [Example 5] | <0.01 mL/min/mg protein | 
16 | COCC(C)(C)C(=O)NCCN1CCC(c2cccc(C(F)(F)F)n2)CC1 [Example 6] | <0.01 mL/min/mg protein | 
17 | O=C(NCCN1CCC(c2cccc(C(F)(F)F)n2)CC1)C1CCOCC1 [Example 11, N-(2-{4-[6-(Trifluoromethyl)pyridin-2-yl]piperidin-1-yl}ethyl)-tetrahydro-2H-pyran-4-carboxamide] |  | effect on serotonin content (Wistar male rat): did not decrease the serotonin content; Metabolic stability of human liver microsome [1]: 0.0075 mL/min/mg protein
18 | Cc1cccc(C2=CCN(CCNC(=O)[C@H]3C[C@@H]4CC[C@H]3O4)CC2)n1 [Example 13] | <0.05 mL/min/mg protein | 
19 | Cc1cccc(C2=CCN(CCNC(=O)C3CCC(F)(F)CC3)CC2)n1 [Example 14] | 0.084 mL/min/mg protein | 
20 | O=C(NCCN1CC=C(c2cccc(C(F)(F)F)n2)CC1)C1CCCOC1 (stereo not shown) [Example 16, N-{2-[6-(Trifluoromethyl)-3′,6′-dihydro[2,4′-bipyridin]-1′(2′H)-yl]ethyl}-tetrahydro-2H-pyran-3-carboxamide] | <0.05 mL/min/mg protein | 
21 | COCC(C)(C)C(=O)NCCN1CC=C(c2cccc(C(F)(F)F)n2)CC1 [Example 18] | <0.05 mL/min/mg protein | 
22 | Cc1cccc(C2CCN(CCNC(=O)C3CCCCO3)CC2)n1 (stereo not shown) [Example 20] | <0.05 mL/min/mg protein | Ki (human D4 receptor [3]): 92 nM; Ki (human D2 receptor): > 10 µM; Ki (human 5-HT1A receptor [4]): 6.8 nM; Emax (human 5-HT1A receptor [5]; [7]): 40%; EC50 (human 5-HT1A receptor [5]): 57 nM; Emax (human D4 receptor [6]; [7]): 60%; EC50 (human D4 receptor [6]): 15 nM; IC50 (hERG channel): > 10 µM
23 | Cc1cccc(C2=CCN(CCNC(=O)C3CCOCC3)CC2)n1 [Example 29, N-[2-(6-Methyl-3′,6′-dihydro[2,4′-bipyridin]-1′(2′H)-yl)ethyl]-tetrahydro-2H-pyran-4-carboxamide] | <0.05 mL/min/mg protein | 
24 | CC(C)(C)C(=O)NCCN1CC=C(c2cccc(C(F)(F)F)n2)CC1 [Example 31, 2,2-Dimethyl-N-{2-[6-(trifluoromethyl)-3′,6′-dihydro[2,4′-bipyridin]-1′(2′H)-yl]ethyl}propanamide] | <0.05 mL/min/mg protein | 
